The values below come from patent US12552775B2, “Compounds and uses thereof” (Foghorn Therapeutics Inc., priority 2020, dated 2026).

Assay [1] addresses T1, HiBit-BRG1 fusion protein (Homo sapiens, UniProt P51532).
T1 construct: expressed in transfected cells
As to the kind of experiment: HiBiT-BRG1 cell-based degradation assay (Nano-Glo HiBiT Lytic Detection, 24 h). The conditions noted are these: stable HeLa cell line expressing HiBit-BRG1 and LgBit, top dose 30 μM, read-out: BRG1 HiBit Degradation Maximum (%). The procedure:
(§1) Procedure: A stable HeLa cell line expressing HiBiT-BRM was generated. On day 0, 5000 cells were seeded in 40 μL of media into each well of 384-well cell culture plates. On day 1, cells were treated with 120 nL DMSO or 120 nL of 3-fold serially DMSO-diluted compounds (10 points in duplicate with 30 μM as final top dose). Subsequently plates were incubated for 24 h in a standard tissue culture incubator and equilibrated at room temperature for 15 minutes. Nano-Glo HiBiT Lytic Detection System (Promega N3050) reagent was freshly prepared and 20 ul was added to each well. Upon addition of this LgBit-containing reagent, the HiBiT and LgBiT proteins associate to form the luminescent NanoBiT luciferase. The plates were shaken for 10 minutes at room temperature and the bioluminescence read using an EnVision plate reader (PerkinElmer).
For measurement of BRG1 degradation, a stable HeLa cell line expressing HiBit-BRG1 and LgBit was generated. The same protocol as above was then followed.
(§2) The degradation % was calculated using the following formula: % degradation=100%−100%×(Lumsample−LumLC)/(LumHC−LumLC). DMSO treated cells are employed as High Control (HC) and 2 μM of a known BRM/BRG1 degrader standard treated cells are employed as Low Control (LC).

The next assay has as its target T2, HiBit-BRM fusion protein (Homo sapiens, UniProt P51531).
T2 construct: expressed in transfected cells
As to the kind of experiment: HiBiT-BRM cell-based degradation assay (Nano-Glo HiBiT Lytic Detection, 24 h). The conditions noted are these: stable HeLa cell line expressing HiBiT-BRM, top dose 30 μM. The procedure: as §1, §2
In general terms: HiBiT is a short tag that completes a luciferase, so light tracks the accessible tagged protein.

T2 sequence (P51531 whole entry, the tested form may be a part): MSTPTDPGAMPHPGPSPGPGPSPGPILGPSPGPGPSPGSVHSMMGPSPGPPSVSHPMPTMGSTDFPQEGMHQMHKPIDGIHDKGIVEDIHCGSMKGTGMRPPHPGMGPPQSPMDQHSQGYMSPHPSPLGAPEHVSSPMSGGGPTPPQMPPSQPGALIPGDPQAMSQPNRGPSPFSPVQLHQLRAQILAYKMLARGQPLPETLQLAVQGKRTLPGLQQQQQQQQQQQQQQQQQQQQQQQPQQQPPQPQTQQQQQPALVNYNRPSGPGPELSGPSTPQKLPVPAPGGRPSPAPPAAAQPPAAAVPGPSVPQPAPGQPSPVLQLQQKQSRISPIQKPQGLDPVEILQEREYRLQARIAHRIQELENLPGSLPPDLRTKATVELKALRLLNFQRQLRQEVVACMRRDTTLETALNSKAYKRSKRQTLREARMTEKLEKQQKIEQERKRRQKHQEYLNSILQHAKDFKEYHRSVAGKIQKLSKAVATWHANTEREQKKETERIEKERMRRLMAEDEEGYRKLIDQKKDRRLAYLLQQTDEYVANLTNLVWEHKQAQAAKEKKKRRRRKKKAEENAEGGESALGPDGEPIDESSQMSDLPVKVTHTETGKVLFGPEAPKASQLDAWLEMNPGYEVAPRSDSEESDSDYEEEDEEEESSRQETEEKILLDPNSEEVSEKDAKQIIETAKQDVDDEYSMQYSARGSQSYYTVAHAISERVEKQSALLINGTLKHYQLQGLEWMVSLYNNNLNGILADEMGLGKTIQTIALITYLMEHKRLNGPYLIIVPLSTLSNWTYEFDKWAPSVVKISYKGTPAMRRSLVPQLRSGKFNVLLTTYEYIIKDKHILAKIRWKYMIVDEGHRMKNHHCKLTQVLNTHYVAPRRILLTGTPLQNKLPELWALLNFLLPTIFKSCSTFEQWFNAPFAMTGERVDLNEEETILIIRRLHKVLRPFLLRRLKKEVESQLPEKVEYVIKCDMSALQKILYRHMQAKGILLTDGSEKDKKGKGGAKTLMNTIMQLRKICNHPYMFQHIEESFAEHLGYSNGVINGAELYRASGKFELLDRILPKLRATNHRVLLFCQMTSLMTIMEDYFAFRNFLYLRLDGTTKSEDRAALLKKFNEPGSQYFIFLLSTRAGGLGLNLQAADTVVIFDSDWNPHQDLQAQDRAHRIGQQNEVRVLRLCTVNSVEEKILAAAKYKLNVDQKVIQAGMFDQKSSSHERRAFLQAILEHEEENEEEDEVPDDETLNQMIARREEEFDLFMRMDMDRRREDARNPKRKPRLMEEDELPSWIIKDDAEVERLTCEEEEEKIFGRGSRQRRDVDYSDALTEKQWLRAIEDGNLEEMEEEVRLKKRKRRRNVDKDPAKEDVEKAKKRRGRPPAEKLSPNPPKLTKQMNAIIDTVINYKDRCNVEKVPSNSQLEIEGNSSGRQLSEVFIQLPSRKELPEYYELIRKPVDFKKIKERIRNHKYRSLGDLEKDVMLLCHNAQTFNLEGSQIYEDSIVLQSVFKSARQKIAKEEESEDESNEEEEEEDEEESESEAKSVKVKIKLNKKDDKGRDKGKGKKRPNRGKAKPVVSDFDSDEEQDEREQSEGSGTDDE
T1 sequence (P51532 whole entry, the tested form may be a part): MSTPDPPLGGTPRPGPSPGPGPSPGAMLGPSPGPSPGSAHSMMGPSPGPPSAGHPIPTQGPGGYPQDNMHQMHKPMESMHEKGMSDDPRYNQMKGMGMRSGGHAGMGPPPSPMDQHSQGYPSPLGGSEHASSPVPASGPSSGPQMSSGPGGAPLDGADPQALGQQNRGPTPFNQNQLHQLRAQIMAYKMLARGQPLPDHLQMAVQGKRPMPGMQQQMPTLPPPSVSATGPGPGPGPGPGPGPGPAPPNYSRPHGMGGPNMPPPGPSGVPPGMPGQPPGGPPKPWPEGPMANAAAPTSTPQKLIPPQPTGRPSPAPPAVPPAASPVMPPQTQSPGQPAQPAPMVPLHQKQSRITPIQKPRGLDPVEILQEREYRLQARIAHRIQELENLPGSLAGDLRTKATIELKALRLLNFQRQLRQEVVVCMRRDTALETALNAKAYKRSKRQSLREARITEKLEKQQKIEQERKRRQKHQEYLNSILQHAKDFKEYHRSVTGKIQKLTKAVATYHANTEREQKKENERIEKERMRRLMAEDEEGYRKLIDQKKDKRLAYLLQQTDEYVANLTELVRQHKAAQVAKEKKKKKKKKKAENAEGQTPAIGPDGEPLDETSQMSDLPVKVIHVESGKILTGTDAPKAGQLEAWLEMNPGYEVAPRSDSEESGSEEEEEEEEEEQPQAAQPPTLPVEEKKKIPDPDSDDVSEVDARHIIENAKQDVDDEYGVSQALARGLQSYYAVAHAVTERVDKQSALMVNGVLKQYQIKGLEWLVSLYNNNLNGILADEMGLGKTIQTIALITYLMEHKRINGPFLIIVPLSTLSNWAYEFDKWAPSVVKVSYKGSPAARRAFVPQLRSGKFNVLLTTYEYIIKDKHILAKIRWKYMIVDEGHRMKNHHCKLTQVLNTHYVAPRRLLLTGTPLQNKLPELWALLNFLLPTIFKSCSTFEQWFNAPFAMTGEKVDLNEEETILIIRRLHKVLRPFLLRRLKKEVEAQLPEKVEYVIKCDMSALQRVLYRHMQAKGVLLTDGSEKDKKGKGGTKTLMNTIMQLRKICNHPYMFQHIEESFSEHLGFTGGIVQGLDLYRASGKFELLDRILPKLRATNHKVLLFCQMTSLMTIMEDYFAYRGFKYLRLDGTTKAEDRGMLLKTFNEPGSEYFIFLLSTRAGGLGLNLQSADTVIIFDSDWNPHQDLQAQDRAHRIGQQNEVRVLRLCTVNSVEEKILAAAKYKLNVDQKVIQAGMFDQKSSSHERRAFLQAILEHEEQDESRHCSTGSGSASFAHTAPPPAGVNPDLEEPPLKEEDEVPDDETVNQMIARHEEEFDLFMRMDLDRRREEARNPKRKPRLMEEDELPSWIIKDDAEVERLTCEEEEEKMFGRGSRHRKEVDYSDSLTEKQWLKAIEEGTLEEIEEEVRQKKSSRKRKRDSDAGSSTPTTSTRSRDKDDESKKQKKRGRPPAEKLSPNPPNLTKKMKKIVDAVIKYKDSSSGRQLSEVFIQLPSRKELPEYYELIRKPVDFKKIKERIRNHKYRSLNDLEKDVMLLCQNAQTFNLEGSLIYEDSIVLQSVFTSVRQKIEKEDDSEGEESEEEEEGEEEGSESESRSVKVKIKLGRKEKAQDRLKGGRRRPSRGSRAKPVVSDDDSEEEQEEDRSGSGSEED

Take `Nc1nnc(-c2ccccc2O)cc1OCC12CC(CNC(=O)CCOCCOCCOc3cccc4c3C(=O)N(C3CCC(=O)NC3=O)C4=O)(C1)C2` (stereo not drawn) [Compound 14, N-((3-(((3-amino-6-(2-hydroxyphenyl)pyridazin-4-yl)oxy)methyl)bicyclo[1.1.1]pentan-1-yl)methyl)-3-(2-(2-((2-(2,6-dioxopiperidin-3-yl)-1,3-dioxoisoindolin-4-yl)oxy)ethoxy)ethoxy)propanamide]: the Dmax in assay [1] is less than 50%. Besides, the “BRM HiBit Degradation Maximum (%)” value at HiBit-BRM fusion protein is given as “C (“C” indicates maximum degradation < 50%)”.
On the same counts, the results for `Cc1ncsc1-c1ccc(CNC(=O)[C@@H]2C[C@@H](O)CN2C(=O)[C@@H](NC(=O)CCCC(=O)NCC23CC(COc4cc(-c5ccccc5O)nnc4N)(C2)C3)C(C)(C)C)cc1` [Compound 37, N1-((3-(((3-amino-6-(2-hydroxyphenyl)pyridazin-4-yl)oxy)methyl)bicyclo[1.1.1]pentan-1-yl)methyl)-N5-((S)-1-((2S,4R)-4-hydroxy-2-((4-(4-methylthiazol-5-yl)benzyl)carbamoyl)pyrrolidin-1-yl)-3,3-dimethyl-1-oxobutan-2-yl)glutaramide] are less than 50% and “C (“C” indicates maximum degradation < 50%)”.
As to `Nc1nnc(-c2ccccc2O)cc1OCC12CC(C(=O)N3CCN(CCCOc4ccc5c(c4)C(=O)N(C4CCC(=O)NC4=O)C5=O)CC3)(C1)C2` (stereo not drawn) [Compound 97, 5-(3-(4-(3-(((3-amino-6-(2-hydroxyphenyl)pyridazin-4-yl)oxy)methyl)bicyclo[1.1.1]pentane-1-carbonyl)piperazin-1-yl)propoxy)-2-(2,6-dioxopiperidin-3-yl)isoindoline-1,3-dione; formic acid], the Dmax in assay [1] is less than 50%. Further, on HiBit-BRM fusion protein, the “BRM HiBit Degradation Maximum (%)” value is given as “C (“C” indicates maximum degradation < 50%)”.
For `Nc1nnc(-c2ccccc2O)cc1OCC12CC(C(=O)N3CC(CN4CCN(c5ccc6c(c5)C(=O)N(C5CCC(=O)NC5=O)C6=O)CC4)C3)(C1)C2` (stereo not drawn) [Compound 100, 5-(4-((1-(3-(((3-amino-6-(2-hydroxyphenyl)pyridazin-4-yl)oxy)methyl)bicyclo[1.1.1]pentane-1-carbonyl)azetidin-3-yl)methyl)piperazin-1-yl)-2-(2,6-dioxopiperidin-3-yl)isoindoline-1,3-dione; formic acid], in that order: less than 50% and “C (“C” indicates maximum degradation < 50%)”.
Turning to `Cc1ncsc1-c1ccc(CNC(=O)[C@@H]2C[C@@H](O)CN2C(=O)[C@@H](NC(=O)CCCCCCCCCCCCCCC(=O)NC23CC(CCOc4cc(-c5ccccc5O)nnc4N)(C2)C3)C(C)(C)C)cc1` [Compound 50, N1-(3-(2-((3-amino-6-(2-hydroxyphenyl)pyridazin-4-yl)oxy)ethyl)bicyclo[1.1.1]pentan-1-yl)-N16-((S)-1-((2S,4R)-4-hydroxy-2-((4-(4-methylthiazol-5-yl)benzyl)carbamoyl)pyrrolidin-1-yl)-3,3-dimethyl-1-oxobutan-2-yl)hexadecanediamide; formic acid], the Dmax in assay [1] was less than 50%. The “BRM HiBit Degradation Maximum (%)” value on HiBit-BRM fusion protein is reported as “B (“B” indicates maximum degradation ≥ 50%)”.
As for `Cc1ncsc1-c1ccc(CNC(=O)[C@@H]2C[C@@H](O)CN2C(=O)[C@@H](NC(=O)COCCOCCOCCOCC(=O)NCC23CC(COc4cc(-c5ccccc5O)nnc4N)(C2)C3)C(C)(C)C)cc1` [Compound 36, N1-((3-(((3-amino-6-(2-hydroxyphenyl)pyridazin-4-yl)oxy)methyl)bicyclo[1.1.1]pentan-1-yl)methyl)-N14-((S)-1-((2S,4R)-4-hydroxy-2-((4-(4-methylthiazol-5-yl)benzyl)carbamoyl)pyrrolidin-1-yl)-3,3-dimethyl-1-oxobutan-2-yl)-3,6,9,12-tetraoxatetradecanediamide], the Dmax in assay [1] is less than 50%. Besides, the “BRM HiBit Degradation Maximum (%)” value on HiBit-BRM fusion protein is recorded as “C (“C” indicates maximum degradation < 50%)”.
For `Nc1nnc(-c2ccccc2O)cc1OCC12CC(CNC(=O)CCOCCOCCNc3ccc4c(c3)C(=O)N(C3CCC(=O)NC3=O)C4=O)(C1)C2` (stereo not drawn) [Compound 6, N-[[3-([[3-amino-6-(2-hydroxyphenyl)pyridazin-4-yl]oxy]methyl)bicyclo[1.1.1]pentan-1-yl]methyl]-3-[2-(2-[[2-(2,6-dioxopiperidin-3-yl)-1,3-dioxoisoindol-5-yl]amino]ethoxy)ethoxy]propanamide], in that order: less than 50% and “C (“C” indicates maximum degradation < 50%)”.
As for `Nc1nnc(-c2ccccc2O)cc1OCC12CC(CNC(=O)CCCCOc3cccc4c3C(=O)N(C3CCC(=O)NC3=O)C4=O)(C1)C2` (stereo not drawn) [Compound 3, N-[[3-([[3-amino-6-(2-hydroxyphenyl)pyridazin-4-yl]oxy]methyl)bicyclo[1.1.1]pentan-1-yl]methyl]-5-[[2-(2,6-dioxopiperidin-3-yl)-1,3-dioxoisoindol-4-yl]oxy]pentanamide], the Dmax in assay [1] is less than 50%. For the same compound, the “BRM HiBit Degradation Maximum (%)” value on HiBit-BRM fusion protein is on record as “C (“C” indicates maximum degradation < 50%)”.
Take `Nc1nnc(-c2ccccc2O)cc1OCC12CC(C(=O)NCCCCS(=O)(=O)CCCNc3cccc4c3C(=O)N(C3CCC(=O)NC3=O)C4=O)(C1)C2` (stereo not drawn) [Compound 73, 3-(((3-amino-6-(2-hydroxyphenyl)pyridazin-4-yl)oxy)methyl)-N-(4-((3-((2-(2,6-dioxopiperidin-3-yl)-1,3-dioxoisoindolin-4-yl)amino)propyl)sulfonyl)butyl)bicyclo[1.1.1]pentane-1-carboxamide]: the Dmax in assay [1] is less than 50%. Further, the “BRM HiBit Degradation Maximum (%)” value on HiBit-BRM fusion protein is “C (“C” indicates maximum degradation < 50%)”.
On the same counts, the results for `Nc1nnc(-c2ccccc2O)cc1OCC12CC(C(=O)NCCOC3CN(c4ccc5c(c4)C(=O)N(C4CCC(=O)NC4=O)C5=O)C3)(C1)C2` (stereo not drawn) [Compound 81, 3-(((3-amino-6-(2-hydroxyphenyl)pyridazin-4-yl)oxy)methyl)-N-(2-((1-(2-(2,6-dioxopiperidin-3-yl)-1,3-dioxoisoindolin-5-yl)azetidin-3-yl)oxy)ethyl)bicyclo[1.1.1]pentane-1-carboxamide] are more than 50% and “B (“B” indicates maximum degradation ≥ 50%)”.
For `Nc1nnc(-c2ccccc2O)cc1OCCC12CC(NC(=O)CCN3CCN(c4ccc5c(c4)C(=O)N(C4CCC(=O)NC4=O)C5=O)CC3)(C1)C2` (stereo not drawn) [Compound 33, N-(3-(2-((3-amino-6-(2-hydroxyphenyl)pyridazin-4-yl)oxy)ethyl)bicyclo[1.1.1]pentan-1-yl)-3-(4-(2-(2,6-dioxopiperidin-3-yl)-1,3-dioxoisoindolin-5-yl)piperazin-1-yl)propanamide], in that order: less than 50% and “C (“C” indicates maximum degradation < 50%)”.
On the same counts, the results for `Cc1ncsc1-c1ccc(CNC(=O)[C@@H]2C[C@@H](O)CN2C(=O)[C@@H](NC(=O)COCCOCCNC(=O)C23CC(COc4cc(-c5ccccc5O)nnc4N)(C2)C3)C(C)(C)C)cc1` [Compound 68, (2S,4R)-1-((S)-1-(3-(((3-amino-6-(2-hydroxyphenyl)pyridazin-4-yl)oxy)methyl)bicyclo[1.1.1]pentan-1-yl)-12-(tert-butyl)-1,10-dioxo-5,8-dioxa-2,11-diazatridecan-13-oyl)-4-hydroxy-N-(4-(4-methylthiazol-5-yl)benzyl)pyrrolidine-2-carboxamide; formic acid] are less than 50% and “C (“C” indicates maximum degradation < 50%)”.
Consider `Cc1ncsc1-c1ccc(CNC(=O)[C@@H]2C[C@@H](O)CN2C(=O)[C@@H](NC(=O)CCCCC(=O)NCC23CC(COc4cc(-c5ccccc5O)nnc4N)(C2)C3)C(C)(C)C)cc1` [Compound 35, N1-((3-(((3-amino-6-(2-hydroxyphenyl)pyridazin-4-yl)oxy)methyl)bicyclo[1.1.1]pentan-1-yl)methyl)-N6-((S)-1-((2S,4R)-4-hydroxy-2-((4-(4-methylthiazol-5-yl)benzyl)carbamoyl)pyrrolidin-1-yl)-3,3-dimethyl-1-oxobutan-2-yl)adipamide], for which the Dmax in assay [1] is less than 50%. Also, at HiBit-BRM fusion protein, the “BRM HiBit Degradation Maximum (%)” value is given as “C (“C” indicates maximum degradation < 50%)”.
Take `Nc1nnc(-c2ccccc2O)cc1OCC12CC(C(=O)NCCCCCNc3ccc4c(c3)C(=O)N(C3CCC(=O)NC3=O)C4=O)(C1)C2` (stereo not drawn) [Compound 63, 3-(((3-amino-6-(2-hydroxyphenyl)pyridazin-4-yl)oxy)methyl)-N-(5-((2-(2,6-dioxopiperidin-3-yl)-1,3-dioxoisoindolin-5-yl)amino)pentyl)bicyclo[1.1.1]pentane-1-carboxamide; formic acid]: the Dmax in assay [1] is less than 50%. Besides, the “BRM HiBit Degradation Maximum (%)” value on HiBit-BRM fusion protein is reported as “C (“C” indicates maximum degradation < 50%)”.
On the same counts, the results for `CN(CCNC(=O)C12CC(COc3cc(-c4ccccc4O)nnc3N)(C1)C2)CCNc1cccc2c1C(=O)N(C1CCC(=O)NC1=O)C2=O` (stereo not drawn) [Compound 77, 3-(((3-amino-6-(2-hydroxyphenyl)pyridazin-4-yl)oxy)methyl)-N-(2-((2-((2-(2,6-dioxopiperidin-3-yl)-1,3-dioxoisoindolin-4-yl)amino)ethyl)(methyl)amino)ethyl)bicyclo[1.1.1]pentane-1-carboxamide] are less than 50% and “C (“C” indicates maximum degradation < 50%)”.
